Assay results as given in patent US20040186122A1, “Method of treating acute pain with a unitary dosage form comprising ibuprofin and oxycodone” (Forest Laboratories, Inc., priority 2002, published 2004).

Legend:
Caco-2 cell monolayers [1] = assay: Membrane integrity (TEER) of Caco-2 cell monolayers before and after transport; assay type: cell-based; details: at the concentrations used; TEER 980-1002 Ωcm^2 before, not changed after transport
Experimental: Each treatment was performed in triplicate. […] Samples then underwent LC/MS/MS analysis.

in vitro = details: human, Caco-2, Apparent permeability coefficients of ibuprofen (±standard deviation) (n = 3)
[2] = cited from earlier work
[3] = tertiary amine; cited from earlier work
[4] = Transport (Papp) across Caco-2 cell monolayers, AP to BL; details: human, Caco-2, Apparent permeability coefficients of oxycodone (±standard deviation) (n = 3); for Papp A→B at 20 min, 0.02 mg/ml: after 20 minutes; for Papp A→B at 80 min, 0.02 mg/ml: oxycodone 0.02 mg/ml, AP-to-BL
Caco-2 cell monolayers [5] = assay: as above; details: after the initial 20-minute transport period

SMILES | integrity of Caco-2 cell monolayers (TEER) (Caco-2 cell monolayers [1]) | Papp A→B at 80 min, 0.2 mg/ml (in vitro) | bioavailability ([2]; literature (Hall et al. 1993)) | absolute bioavailability ([2]; literature (Leow et al. 1992)) | pKa [3] | Papp A→B at 20 min, 0.02 mg/ml ([4]; ibuprofen 0 mg/ml) | Papp A→B at 20 min, 0.02 mg/ml ([4]; ibuprofen 0.8 mg/ml) | Papp A→B at 20 min, 0.02 mg/ml ([4]; ibuprofen 1.6 mg/ml) | Papp A→B at 20 min, 0.02 mg/ml ([4]; ibuprofen 3.2 mg/ml) | Papp A→B at 80 min, 0.02 mg/ml ([4]; ibuprofen 0 mg/ml) | Papp A→B at 80 min, 0.02 mg/ml ([4]; ibuprofen 0.8 mg/ml) | Papp A→B at 80 min, 0.02 mg/ml ([4]; ibuprofen 1.6 mg/ml) | Papp A→B at 80 min, 0.02 mg/ml ([4]; ibuprofen 3.2 mg/ml (precipitate)) | percentage of transported oxycodone from apical to basolateral compartment (Caco-2 cell monolayers [5]; ibuprofen 0.8 mg/ml) | percentage of transported oxycodone from apical to basolateral compartment (Caco-2 cell monolayers [5]; ibuprofen 1.6 mg/ml) | transport of oxycodone, effect of ibuprofen (Caco-2 cell monolayers [5]; ibuprofen 3.2 mg/ml (precipitating)) | percentage of transported oxycodone from apical to basolateral compartment (Caco-2 cell monolayers [5]; no ibuprofen)
CC(C)Cc1ccc(C(C)C(=O)O)cc1 (stereo not drawn) [ibuprofen] | did not compromise the integrity | 56.5 ± 4.3 ×10⁻⁶ cm/s | ~100% |  |  |  |  |  |  |  |  |  |  |  |  |  | 
COc1ccc2c3c1O[C@H]1C(=O)CC[C@@]4(O)[C@@H](C2)N(C)CC[C@]314.Cl [oxycodone HCl, oxycodone hydrochloride] | did not compromise the integrity |  |  | 87% | about 9 | 15 ± 0.9 ×10⁻⁶ cm/s | 20 ± 0.6 ×10⁻⁶ cm/s | 19 ± 0.3 ×10⁻⁶ cm/s | 16 ± 0.7 ×10⁻⁶ cm/s | 54.2 ± 0.9 ×10⁻⁶ cm/s | 56.9 ± 1.4 ×10⁻⁶ cm/s | 55.1 ± 1.3 ×10⁻⁶ cm/s | 50.5 ± 0.5 ×10⁻⁶ cm/s | 20% | 19% | did not increase the transport | 15%
